Measured values reported in PubChem BioAssay AID1963834 (Molecular Pharmacology Branch, DTP, NCI, 2024).
pIC50: −log10 of the molar value.

Tested on: 873145-292-R-J1-PDC complex spheroid viability
Test: Anticancer human tumor 873145-292-R-J1-PDC patient-derived renal clear cell carcinoma cell line growth inhibition [POLQ]
Conditions: for pIC50: curve of first compound; for viability, T/C: stronger effect = lower value
Procedure: Multicellular complex tumor spheroid response to Polymerase (POL) inhibitors (novobiocin, ART-558, RP6685) in combination with a variety of drugs and investigational agents in selected tumor cell lines
The POL inhibitors (novobiocin, ART-558, and RP6685) were evaluated both individually and in combination with standard of care and investigational anticancer small molecules within a complex spheroid model of solid tumors. . Complex spheroids include a stromal component modeled by human endothelial cells (HUVEC) and fibroblasts modeled by human mesenchymal stem cells (MSCs). The concentration ranges selected for each drug and investigational agent were based upon clinically achievable concentrations if the clinical Cmax of the agent was known.
Compounds. The drugs and investigational agents: novobiocin (NSC847541), ART-558 (NSC835418), RP-6685 (NSC848927), peposertib (NSC802822), ceralasertib (NSC780249), elimusertib (NSC800525), camonsertib (NSC841442), AZD-1390 (NSC803789), olaparib (NSC753686), talazoparib (NSC767125), rucaparib (NSC756644), sotorasib (NSC818433), MRTX-1133 (NSC836407), SN-38 (NSC673596), topotecan (NSC609699), epotoside (NSC141540), doxorubicin (NSC123127), gemcitabine (NSC613327), 5-fluorouracil (NSC19893), paclitaxel (NSC125973), vemurafenib (NSC761431), MSA-2 (NSC828583), SN-011 (NSC837082), adavosertib (NSC754352), prexasertib (NSC758257), carboplatin (NSC241240) and oxaliplatin (NSC266046), were obtained from the National Cancer Institute (NCI) Developmental Therapeutics Program Chemical Repository (21). The FDA-approved anticancer drug set is available from the Developmental Therapeutics Program at https://dtp.cancer.gov/organization/dscb/obtaining/. […] The stock solutions were prepared in dimethyl sulfoxide (DMSO, Sigma-Aldrich, St. Louis, MO, cat. D2650), except for the platinum compounds which were prepared in saline (Quality Biological, Gaithersburg, MD, cat. 114-055-101), at 800-fold the tested concentration and stored at -70 degrees C prior to their use. All drugs and investigational agents were tested over a range starting from a high concentration at or near the clinical Cmax and decreasing in half-log increments. If the clinical Cmax for an agent had not been determined, the highest concentration tested was 10 microM, except for SN-38, which was tested at a high concentration of 1 microM.
Cell Culture. All cells were maintained in an incubator at 37 degrees C and 5% CO2 with 95% humidity. The PDC lines were cultured according to standard operating procedures established by the NCI PDMR (https://pdmr.cancer.gov). Table 3 of the manuscript, lists the cell lines along with the number of the three cell types plated to form the mct-spheroids and media for tumor cell growth. After thawing, all PDC lines, except 997537-175-T-J1-PDC and 415267-285-R-J2-PDC, were cultured in Matrigel-coated flasks prepared with a working solution of 1X Ham's F-12 nutrient mix, without supplementation (Thermo Fisher Scientific, cat. 11765054), 100 U/mL penicillin-streptomycin (Thermo Fisher Scientific, cat. 15140122), and 2.5% Matrigel (Corning Inc., Corning, NY, cat. 354248) for the first three passages. The two PDC lines 997537-175-T-J1-PDC and 415267-285-R-J2-PDC were cultured on uncoated flasks. The 857933-349-R-J2-PDC line was cultured in 6C/Colon 1B media containing advanced DMEM/F-12 (Thermo Fisher Scientific, cat. 12634028), 10 mM HEPES (Thermo Fisher Scientific, cat. 15630080), 1X GlutaMAX supplement (Thermo Fisher Scientific, cat. 35050061), 0.1 mg/mL primocin (InvivoGen, San Diego, CA, cat. ant-pm-2), 10% defined fetal bovine serum, heat inactivated (HyClone Laboratories Inc., Logan, UT, cat. SH30070.03HI), 50% L-WRN conditioned media (ATCC, cat. CRL-3276), 1.25 mM N-Acetyl-L-cysteine (Sigma-Aldrich, cat. A9165), 10 mM nicotinamide (Sigma-Aldrich, cat. N0636), 1X B-27 supplement (Thermo Fisher Scientific, cat. 17504044), 1X N-2 supplement (Thermo Fisher Scientific, cat. […]
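Also: spheroids exposed to compounds for 7 days before viability readout.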
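For viability, T/C in this document: luminescence signal used as surrogate for viable cell content; 100% = DMSO vehicle control viability.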

Q: Which results are given for `COc1cccc2c1C(=O)c1c(O)c3c(c(O)c1C2=O)CC(O)(C(=O)CO)CC3OC1CC(N)C(O)C(C)O1` (configuration not stated) + Cc1cccc(N(C)C(=O)C2C(O)CCN2c2nc(C)cc(C(F)(F)F)c2C#N)c1?
A: pIC50 (second compound 0.0316 µM): 5.84; pIC50 (second compound 0.1 µM): 5.85; pIC50 (second compound 0.316 µM): 5.87; pIC50 (second compound 1 µM): 5.87; pIC50 (second compound 3.16 µM): 5.94; pIC50 (second compound 10 µM): 6.20; viability, T/C (second compound 0.0316 µM, first compound 0.0316 µM): 87.6%; viability, T/C (second compound 0.0316 µM, first compound 0.1 µM): 83.7%; viability, T/C (second compound 0.0316 µM, first compound 0.316 µM): 66.1%; viability, T/C (second compound 0.0316 µM, first compound 1 µM): 71.8%; viability, T/C (second compound 0.0316 µM, first compound 3.16 µM): 2.96%; viability, T/C (second compound 0.0316 µM, first compound 10 µM): 2.02%; viability, T/C (second compound 0.1 µM, first compound 0.0316 µM): 92.2%; viability, T/C (second compound 0.1 µM, first compound 0.1 µM): 82.5%; viability, T/C (second compound 0.1 µM, first compound 0.316 µM): 66.9%; viability, T/C (second compound 0.1 µM, first compound 1 µM): 68.6%; viability, T/C (second compound 0.1 µM, first compound 3.16 µM): 4.68%; viability, T/C (second compound 0.1 µM, first compound 10 µM): 2.44%; viability, T/C (second compound 0.316 µM, first compound 0.0316 µM): 96.4%; viability, T/C (second compound 0.316 µM, first compound 0.1 µM): 75.1%; viability, T/C (second compound 0.316 µM, first compound 0.316 µM): 72.1%; viability, T/C (second compound 0.316 µM, first compound 1 µM): 66.1%; viability, T/C (second compound 0.316 µM, first compound 3.16 µM): 4.5%; viability, T/C (second compound 0.316 µM, first compound 10 µM): 2.19%; viability, T/C (second compound 1 µM, first compound 0.0316 µM): 95.8%; viability, T/C (second compound 1 µM, first compound 0.1 µM): 69.7%; viability, T/C (second compound 1 µM, first compound 0.316 µM): 71.9%; viability, T/C (second compound 1 µM, first compound 1 µM): 66.4%; viability, T/C (second compound 1 µM, first compound 3.16 µM): 3.11%; viability, T/C (second compound 1 µM, first compound 10 µM): 1.52%; viability, T/C (second compound 3.16 µM, first compound 0.0316 µM): 91.1%; viability, T/C (second compound 3.16 µM, first compound 0.1 µM): 83.5%; viability, T/C (second compound 3.16 µM, first compound 0.316 µM): 71.9%; viability, T/C (second compound 3.16 µM, first compound 1 µM): 57.1%; viability, T/C (second compound 3.16 µM, first compound 3.16 µM): 2.19%; viability, T/C (second compound 3.16 µM, first compound 10 µM): 1.66%; viability, T/C (second compound 10 µM, first compound 0.0316 µM): 84.8%; viability, T/C (second compound 10 µM, first compound 0.1 µM): 73.3%; viability, T/C (second compound 10 µM, first compound 0.316 µM): 80.3%; viability, T/C (second compound 10 µM, first compound 1 µM): 30.8%; viability, T/C (second compound 10 µM, first compound 3.16 µM): 0.94%; viability, T/C (second compound 10 µM, first compound 10 µM): 1.6%
